pIC50: −log10 of the molar value. Read-outs that look alike come from different tables or passages of the source.
How the values were obtained:
Format in all cases: cell-based
tumor cell = assay: Matrigel outgrowth assay/branching assay (Table Va)
How it was run: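 Step one: Matrigel (3 mg/ml) is set for 1 h at 37° C. Step two: 5000 cells per well go on in medium with compound (0.78–3.125 μM) or DMSO. Step three: images at 48, 72 and 96 h are scored for complete loss of branching.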

C8161 = assay: Cell vitality assay (ATP assay, CellTiter-Glo); settings: Homo sapiens; C8161, 72 h; Table IIa; read-out: IC50 ATP-Assay after 72 h C8161
How it was run: (§1)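 1000 cells/well incubated 72 h with compound at 12.5 down to 0.195 μM (twofold steps) or DMSO control. Viability measured as cellular ATP by CellTiter-Glo luminescence; IC50 taken as the concentration giving 50% of the DMSO-control ATP level.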

A172 = assay: Cell vitality assay (ATP assay, CellTiter-Glo); settings: Homo sapiens, A 172; A172, 72 h; Table IIa; read-out: IC50 ATP-Assay after 72 h A172
How it was run: as §1

U138 = assay: Cell vitality assay (ATP assay, CellTiter-Glo); settings: U138, 72 h; Table IIa; read-out: IC50 ATP-Assay after 72 h U138
How it was run: as §1

MDA-MB231 = assay: Cell vitality assay (ATP assay, CellTiter-Glo); settings: Homo sapiens, MDA-MB-231
How it was run: as §1

SF763 = assay: Cell vitality assay (ATP assay, CellTiter-Glo); settings: SF763, 72 h; Table IIa; read-out: IC50 ATP-Assay after 72 h SF763
How it was run: as §1

Hs578T = assay: Wound healing migration assay; settings: Homo sapiens, Hs-578T; HS578T cell line; Table Ib
How it was run: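 Cells seeded at 150000/24 well, grown to monolayer overnight, scratched with a pipette tip, then treated with compound at 12.5, 6.25 or 3.125 μM versus DMSO. Stopped by crystal violet fixation at 48-72 h once control wounds closed; IC50 taken as 50% wound size between t0 and t48 or t72.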

viable cells in culture = assay: Cell viability assay at 10 μM (CellTiter-Glo, Table VII); settings: compound 10 μM, 72 h;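 further: graded A 0-20%; B 21-40%; C 41-60%; D over 60% viable cells relative to DMSO control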
How it was run: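 Viable cell number was measured with the CellTiter-Glo Luminescent Cell Viability Assay (Promega), following the manufacturer's protocol, which quantifies ATP as a marker of metabolically active cells. In 96-well plates, 1000 cells/well in 100 μl medium were exposed to compound at 10 μM, or to DMSO control, for 72 h. Values were calculated relative to DMSO-control ATP.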

[1] = Homo sapiens, C8161 cells, read-out: Total branching inhibition in Matrigel C8161
[2] = Homo sapiens, Hs-578T, Hs578T cells, read-out: Total branching inhibition in Matrigel Hs578T
[3] = U118 cells, read-out: Total branching inhibition in Matrigel U118
[4] = U138 cells, read-out: Total branching inhibition in Matrigel U138
[5] = MDA-MB231, 72 h, Table IIa, read-out: IC50 ATP-Assay after 72 h MDA-MB231
[6] = Homo sapiens, HCT-116, HCT116 def, read-out: percentage (%) of viable cells HCT 116def
[7] = Homo sapiens, HCT-116, HCT116 wt, read-out: percentage (%) of viable cells HCT 116wt
[8] = Homo sapiens, HT-29, HT29, read-out: percentage (%) of viable cells HT29
[9] = Homo sapiens, NCI-H358, H358, read-out: percentage (%) of viable cells H358
[10] = Homo sapiens, NCI-H1650, H1650, read-out: percentage (%) of viable cells H1650
[11] = Homo sapiens, NCI-H1666, H1666, read-out: percentage (%) of viable cells H1666
[12] = Homo sapiens, NCI-H1975, H1975, read-out: percentage (%) of viable cells H1975
[13] = Homo sapiens, NCI-H1993, H1993, read-out: percentage (%) of viable cells H1993
[14] = Homo sapiens, A549, read-out: percentage (%) of viable cells A549
[15] = Homo sapiens, HCC827, read-out: percentage (%) of viable cells HCC827
[16] = Homo sapiens, SW480, read-out: percentage (%) of viable cells SW480
[17] = RKO, read-out: percentage (%) of viable cells RKO

| Compound | pIC50 (tumor cell; [1]) | pIC50 (tumor cell; [2]) | pIC50 (tumor cell; [3]) | pIC50 (tumor cell; [4]) | pIC50 (C8161) | pIC50 (U138) | pIC50 (MDA-MB231; [5]) | pIC50 (SF763) | pIC50 (Hs578T) | viability at 10 µM (viable cells in culture; [6]) | viability at 10 µM (viable cells in culture; [7]) | viability at 10 µM (viable cells in culture; [8]) | viability at 10 µM (viable cells in culture; [9]) | viability at 10 µM (viable cells in culture; [10]) | viability at 10 µM (viable cells in culture; [11]) | viability at 10 µM (viable cells in culture; [12]) | viability at 10 µM (viable cells in culture; [13]) | viability at 10 µM (viable cells in culture; [14]) | viability at 10 µM (viable cells in culture; [15]) | viability at 10 µM (viable cells in culture; [16]) | also measured |
| --- | --- | --- | --- | --- | --- | --- | --- | --- | --- | --- | --- | --- | --- | --- | --- | --- | --- | --- | --- | --- | --- |
| COc1cc2c(Oc3ccc(NS(=O)(=O)c4cc(F)ccc4F)cc3F)ccnc2cc1OCCCN1CCCCC1 [Example 1, 2,5-Difluoro-N-{3-fluoro-4-[6-methoxy-7-(3-piperidin-1-yl-propoxy)-quinolin-4-yloxy]-phenyl}-benzenesulfonamide] | ≥ 5.30 | ≥ 5.30 | ≥ 5.30 | ≥ 5.30 | 4.30 to 4.90 | ≥ 4.90 | 4.30 to 4.90 | ≥ 4.90 | ≥ 4.90 | 0 to 20% | 0 to 20% | 21 to 40% | 0 to 20% | 41 to 60% | 41 to 60% | 21 to 40% | 21 to 40% | > 60% | 21 to 40% | 0 to 20% | pIC50 (A172): ≥ 4.90; pIC50 (MDA-MB231; cell vitality assay, MDA-MB231, Table IIc, read-out: IC50 MDA-MB231): ≥ 4.90; viability at 10 µM (viable cells in culture; [17]): 0 to 20% |
| COc1cc2c(Oc3ccc(NS(=O)(=O)c4ccccc4[N+](=O)[O-])cc3F)ccnc2cc1OCCCN1CCCCC1 [Example 7, N-{3-Fluoro-4-[6-methoxy-7-(3-piperidin-1-yl-propoxy)-quinolin-4-yloxy]-phenyl}-2-nitro-benzenesulfonamide] | ≥ 5.30 | 4.30 to 5.30 | ≥ 5.30 | 4.30 to 5.30 | ≥ 4.90 | ≥ 4.90 | ≥ 4.90 | ≥ 4.90 | ≥ 4.90 | 21 to 40% | 0 to 20% | 0 to 20% | 0 to 20% | 0 to 20% | 21 to 40% | 21 to 40% | 21 to 40% | 41 to 60% | 0 to 20% | 0 to 20% | pIC50 (A172): 4.30 to 4.90; viability at 10 µM (viable cells in culture; [17]): 0 to 20% |
| COc1cc2c(Oc3ccc(NS(=O)(=O)c4cccc(Oc5ccccc5)c4)cc3F)ccnc2cc1OCCCN1CCCCC1 [Example 10, N-{3-Fluoro-4-[6-methoxy-7-(3-piperidin-1-yl-propoxy)-quinolin-4-yloxy]-phenyl}-3-phenoxy-benzenesulfonamide] | ≥ 5.30 | ≥ 5.30 | ≥ 5.30 | 4.30 to 5.30 | ≥ 4.90 | ≥ 4.90 | ≥ 4.90 | ≥ 4.90 | ≥ 4.90 | 0 to 20% | 0 to 20% | 21 to 40% | 0 to 20% | 21 to 40% | 21 to 40% | 21 to 40% | 0 to 20% | 21 to 40% | 0 to 20% | 0 to 20% | pIC50 (A172): ≥ 4.90; viability at 10 µM (viable cells in culture; [17]): 0 to 20% |
| COc1cc2c(Oc3ccc(NS(=O)(=O)c4ccccc4Cl)cc3F)ccnc2cc1OCCCN1CCCC(C)C1 (centres unmarked) [Example 38, 2-Chloro-N-(3-fluoro-4-{6-methoxy-7-[3-(3-methyl-piperidin-1-yl)-propoxy]-quinolin-4-yloxy}-phenyl)-benzenesulfonamide] | ≥ 5.30 | ≥ 5.30 | ≥ 5.30 | 4.30 to 5.30 | ≥ 4.90 | ≥ 4.90 | ≥ 4.90 | ≥ 4.90 | ≥ 4.90 | 21 to 40% | 21 to 40% | 0 to 20% | 0 to 20% | > 60% | 21 to 40% | 21 to 40% | 21 to 40% | > 60% | 41 to 60% | 0 to 20% | pIC50 (A172): ≥ 4.90; viability at 10 µM (viable cells in culture; [17]): 0 to 20% |
| COc1cc2c(Oc3ccc(NS(=O)(=O)c4cc(C)ccc4F)cc3F)ccnc2cc1OCCCN1CCCC(C)C1 (centres unmarked) [Example 55] | ≥ 5.30 | ≥ 5.30 | ≥ 5.30 | 4.30 to 5.30 | ≥ 4.90 | 4.30 to 4.90 | ≥ 4.90 | 4.30 to 4.90 | ≥ 4.90 | 21 to 40% | 0 to 20% | 21 to 40% | 0 to 20% | 0 to 20% | 0 to 20% | > 60% | 0 to 20% | 21 to 40% | 41 to 60% | 21 to 40% | viability at 10 µM (viable cells in culture; [17]): 41 to 60% |
| COc1cc2c(Oc3ccc(NS(=O)(=O)c4ccc(C)c(F)c4)cc3F)ccnc2cc1OCCCN1CCCC(C)C1 (centres unmarked) [Example 56, 3-Fluoro-N-(3-fluoro-4-{6-methoxy-7-[3-(3-methyl-piperidin-1-yl)-propoxy]-quinolin-4-yloxy}-phenyl)-4-methyl-benzenesulfonamide] | ≥ 5.30 | 4.30 to 5.30 | ≥ 5.30 | 4.30 to 5.30 | ≥ 4.90 | ≥ 4.90 | 4.30 to 4.90 | ≥ 4.90 | ≥ 4.90 | 21 to 40% | 21 to 40% | 0 to 20% | 0 to 20% | 41 to 60% | 21 to 40% | 0 to 20% | 41 to 60% | > 60% | 21 to 40% | 0 to 20% | viability at 10 µM (viable cells in culture; [17]): 21 to 40% |
| COc1cc2c(Oc3ccc(NS(=O)(=O)c4cccc(Oc5ccccc5)c4)cc3F)ccnc2cc1OCCCN1CCCC(C)C1 (centres unmarked) [Example 59, N-(3-Fluoro-4-{6-methoxy-7-[3-(3-methyl-piperidin-1-yl)-propoxy]-quinolin-4-yloxy}-phenyl)-3-phenoxy-benzenesulfonamide] | ≥ 5.30 | ≥ 5.30 | 4.30 to 5.30 | ≥ 5.30 | ≥ 4.90 | ≥ 4.90 | ≥ 4.90 | ≥ 4.90 | ≥ 4.90 | 0 to 20% | 0 to 20% | 0 to 20% | 21 to 40% | > 60% | 41 to 60% | 21 to 40% | 0 to 20% | 21 to 40% | 21 to 40% | 0 to 20% | viability at 10 µM (viable cells in culture; [17]): 0 to 20% |
| COc1cc2c(Oc3ccc(NS(=O)(=O)c4ccc(Cl)s4)cc3F)ccnc2cc1OCCCN1CCCC(C)C1 (centres unmarked) [Example 63, 5-Chloro-thiophene-2-sulfonic acid (3-fluoro-4-{6-methoxy-7-[3-(3-methyl-piperidin-1-yl)-propoxy]-quinolin-4-yloxy}-phenyl)-amide] | 4.30 to 5.30 | ≥ 5.30 | ≥ 5.30 | ≥ 5.30 | ≥ 4.90 | 4.30 to 4.90 | ≥ 4.90 | ≥ 4.90 | ≥ 4.90 | 21 to 40% | 0 to 20% | 21 to 40% | 0 to 20% | 41 to 60% | 41 to 60% | 0 to 20% | 0 to 20% | 21 to 40% | 21 to 40% | 0 to 20% | viability at 10 µM (viable cells in culture; [17]): > 60% |

Reference: patent US9169241B2, “Quinolinyloxyphenylsulfonamides” (Max-Planck-Gesellschaft Zur Forderung der Wissenschaften …, priority 2009, dated 2015)
